The subject of data set [1] is HT-22. Put plainly: Neuroprotective activity against amyloid beta (1 to 42 residues)-induced cell death in mouse HT22 cells assessed as increase in cell viability at 1 uM after 24 hrs by MTT assay (reference value: 51.2%). Type of data set: functional. A general note: Tetrazolium dyes change colour on reduction, which living cells bring about.
Data set [2] concerns HT-22. Briefly: Neuroprotective activity against amyloid beta (1 to 42 residues)-induced cell death in mouse HT22 cells assessed as increase in cell viability at 5 uM after 24 hrs by MTT assay (reference value: 51.2%). Type of data set: functional.
Data set [3] has as its system HT-22. Put plainly: Neuroprotective activity against amyloid beta (1 to 42 residues)-induced cell death in mouse HT22 cells assessed as increase in cell viability at 20 uM after 24 hrs by MTT assay (reference value: 51.2%). Type of data set: functional.
Data set [4] has as its system HT-22. Briefly: Cytotoxicity against mouse HT-22 cells assessed as reduction in cell viability at 40 uM after 24 hrs by MTT assay. It is filed as cell-based. Particulars: ht-22, 24 h.
Data set [5] relates to BV-2. Put plainly: Cytotoxicity against mouse BV2 cells assessed as reduction in cell viability at 40 uM after 18 hrs by MTT assay. It is filed as cell-based. Particulars: bv-2, 18 h.
In data set [6] the test system is HT-22. Put plainly: Neuroprotective activity against amyloid beta (1 to 42) transfected mouse HT-22 cells assessed as protection against amyloid-induced inflammation at 40 uM after 24 hrs by MTT assay. Type of data set: functional, cell-based.
Data set [7] concerns the target Beta-secretase 1 (Homo sapiens) (UniProt P56817). Put plainly: Inhibition of BACE1 (unknown origin) at 20 uM measured after 60 mins by FRET assay relative to control.
Data set [8] has the same target. Briefly: Inhibition of BACE1 (unknown origin) at 10 uM measured after 60 mins by FRET assay.
Data set [9] relates to HT-22. Put plainly: Neuroprotective activity in mouse HT-22 cells assessed as reduction in amyloid beta (1 to 42 residues)-induced glutamate level at 40 uM after 24 hrs by fluorescence assay (reference value: 3.17). It is filed as functional.
Data set [10] relates to HT-22. Briefly: Neuroprotective activity against glutamate-induced cell death in mouse HT22 cells assessed as increase in cell viability at 40 uM preincubated for 6 hrs followed by glutamate-challenge and measured after 16 hrs by MTT assay relative to control. It is filed as functional.
Data set [11] relates to BV-2. Briefly: Anti-neuroinflammatory activity in mouse BV-2 cells assessed as reduction in amyloid beta (1 to 42 residues)-induced nitric oxide at 40 uM after 18 hrs. Type of data set: functional, cell-based.
For data set [12], the system named is HT-22. Put plainly: Neuroprotective activity against amyloid beta (1 to 42) transfected mouse HT22-ARE cells assessed as reversal of increase in antioxidant response element-luciferase activity at 40 uM after 18 hrs by reporter gene assay. It is filed as functional, cell-based. (A reporter such as luciferase makes a cellular process visible.)
Data set [13] deals with HT-22. Briefly: Neuroprotective activity against in amyloid beta (1 to 42) transfected mouse HT22 cells assessed as reduction in overexpression of the green fluorescent pEGFP-C1 gene at 40 uM after 24 hrs by reporter gene assay. It is filed as functional, cell-based.

Active and inactive are the calls of the source. The rule behind the calls is not given here.

Chain of Beta-secretase 1 (Homo sapiens) (P56817 whole entry): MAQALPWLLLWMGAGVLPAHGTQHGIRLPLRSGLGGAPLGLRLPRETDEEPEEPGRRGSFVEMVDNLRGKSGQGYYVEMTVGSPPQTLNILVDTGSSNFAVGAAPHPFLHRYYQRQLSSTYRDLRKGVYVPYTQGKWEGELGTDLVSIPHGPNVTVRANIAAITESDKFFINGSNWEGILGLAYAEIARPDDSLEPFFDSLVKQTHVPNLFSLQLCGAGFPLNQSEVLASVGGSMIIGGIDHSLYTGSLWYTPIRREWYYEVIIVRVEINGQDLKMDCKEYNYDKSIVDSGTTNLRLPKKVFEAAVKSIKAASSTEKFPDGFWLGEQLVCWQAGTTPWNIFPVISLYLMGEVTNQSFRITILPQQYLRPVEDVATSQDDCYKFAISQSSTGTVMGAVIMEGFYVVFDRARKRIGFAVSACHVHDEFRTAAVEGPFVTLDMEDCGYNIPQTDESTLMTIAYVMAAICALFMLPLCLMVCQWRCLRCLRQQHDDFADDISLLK

In the case of `CC(=O)O[C@H]1CC[C@]2(C)[C@H]3C=CC4=C5CC(C)(C)CC[C@]5(C(=O)O)CC[C@@]4(C)[C@]3(C)CC[C@H]2C1(C)C`, the Activity with HT-22 [1] came out at 68.9%.

Regarding `CC1(C)CC[C@]2(O)[C@H](O)C[C@]3(C)C(=CC[C@@H]4[C@@]5(C)CC[C@H](O)C(C)(C)[C@@H]5CC[C@]43C)[C@@H]2C1`, the Activity in the data set on HT-22 [1] was 61.9%. With `CC1(C)CC[C@]2(O)C(=O)C[C@]3(C)C(=CC[C@@H]4[C@@]5(C)CC[C@H](O[C@@H]6O[C@H](CO)[C@@H](O)[C@H](O[C@@H]7O[C@H](CO)[C@@H](O)[C@H](O)[C@H]7O[C@@H]7O[C@H](CO)[C@@H](O)[C@H](O)[C@H]7O)[C@H]6O[C@H]6O[C@@H](CO)[C@H](O)[C@@H](O)[C@@H]6O)C(C)(C)[C@@H]5CC[C@]43C)[C@@H]2C1`, in the data set on HT-22 [2], the Activity is given as 68.9%. As to `CC(=O)O[C@H]1CC[C@]2(C)[C@H]3CC=C4[C@@H]5CC(C)(C)CC[C@]5(C(=O)O)CC[C@@]4(C)[C@]3(C)CC[C@H]2C1(C)C` [ACETYL OLEANOLIC ACID], in the data set with HT-22 [1], the Activity was 56.3%. In the case of `CC1(C)CC[C@]2(O)C(=O)C[C@]3(C)C(=CC[C@@H]4[C@@]5(C)CCC(=O)C(C)(C)[C@@H]5CC[C@]43C)[C@@H]2C1`, the Activity in the data set on HT-22 [3] is on record as 68.9%. As for `CCCCOC(=O)CC[C@]1(C)[C@H]2CC=C3[C@@H]4C[C@](C)(CO)CC[C@]4(O)C(=O)C[C@@]3(C)[C@]2(C)[C@@H](O)C[C@H]1C(C)(C)O`, the Activity entry in the data set on HT-22 [4] and in the data set with BV-2 [5] was “Non-Toxic” each time. Turning to `CC(C)(O)C1C[C@H](O)[C@]2(C)[C@H](CC=C3[C@@H]4C[C@](C)(CO)CC[C@]4(O)C(=O)C[C@]32C)[C@@]1(C)CCC(=O)O` (some centres undefined), the Activity with HT-22 [3] was found to be 68.9%. The term inhibition denotes the percentage by which the read-out fell short of the control. Take `CO[C@@H]1C=C2[C@@H]3CC(C)(C)CC[C@]3(O)C(=O)C[C@@]2(C)[C@]2(C)CC[C@H]3C(C)(C)C(=O)C=C[C@]3(C)[C@@H]12`: the values for the Activity entry in the data set on HT-22 [4], in the data set with HT-22 [10] and in the data set with BV-2 [5] were “Non-Toxic”, 73.8% and “Non-Toxic”, respectively. Moreover, the outcome in the data set on HT-22 [6], with BV-2 [11], in the data set with HT-22 [12] and in the data set with HT-22 [13] was Active. Moreover, the inhibition in [7] was 61.3%. For the same molecule, the inhibition entry in data set [8] is “Active”. For the same molecule, the “fold change (FC)” value with HT-22 [9] is recorded as 1.8. On to `COC(=O)CC[C@@]1(C)C(C(C)(C)O)CC[C@]2(C)[C@@H]1CC=C1[C@@H]3C[C@](C)(CO)CC[C@]3(O)C(=O)C[C@]12C` (some centres undefined), for which the Activity with HT-22 [3] was determined as 68.9%.

For the molecule `CC1(C)CC[C@]2(O)C(=O)C[C@]3(C)C(=CC[C@@H]4[C@@]5(C)CC[C@H](O)C(C)(C)[C@@H]5CC[C@]43C)[C@@H]2C1`, the Activity in the data set with HT-22 [1] was found to be 68.9%.

In the case of `CC1(CO)CC[C@]2(O)C(=O)C[C@]3(C)C(=CC[C@@H]4[C@@]5(C)CCC(=O)C(C)(C)[C@@H]5CC[C@]43C)[C@@H]2C1` (some centres undefined), the Activity result in the data set with HT-22 [4] is reported as “Non-Toxic”; in the data set with HT-22 [10], 81.2%; in the data set with BV-2 [5] it was “Non-Toxic”. Further, the outcome in the data set on HT-22 [6], in the data set on BV-2 [11], in the data set on HT-22 [12] and in the data set with HT-22 [13] was Active. In addition, in [7], the inhibition stood at 60.6%. Further, in [8], the inhibition entry was “Active”. For the same molecule, the “fold change (FC)” value in the data set on HT-22 [9] is given as 1.81. With `C=C(C)[C@@H]1C[C@H](O)[C@]2(C)[C@H](CC=C3[C@@H]4C[C@](C)(CO)CC[C@]4(O)C(=O)C[C@]32C)[C@@]1(C)CCC(=O)OC`, the Activity entry with HT-22 [4] and in the data set on BV-2 [5] was “Non-Toxic” each time. As for `C=C(C)C1CC[C@]2(C)[C@H](CC=C3[C@@H]4C[C@](C)(CO)CC[C@]4(O)C(=O)C[C@]32C)[C@@]1(C)CCC(=O)O` (some centres undefined), the Activity in the data set on HT-22 [3] is listed as 68.9%. Same read-out and setting: the figure for `CC(C)(O)C1CC[C@]2(C)[C@H](CC=C3[C@@H]4C[C@](C)(CO)CC[C@]4(O)C(=O)C[C@]32C)[C@@]1(C)CCC(=O)O` (some centres undefined) is 68.9%; for `CC1(C)CC[C@]2(C(=O)O)C(=O)C[C@]3(C)C(=CC[C@@H]4[C@@]5(C)CC[C@H](O[C@@H]6O[C@H](C(=O)O)[C@@H](O)[C@H](O[C@@H]7O[C@H](CO)[C@@H](O)[C@H](O)[C@H]7O[C@@H]7O[C@H](CO)[C@@H](O)[C@H](O)[C@H]7O)[C@H]6O[C@H]6O[C@@H](CO)[C@H](O)[C@@H](O)[C@@H]6O)C(C)(C)[C@@H]5CC[C@]43C)[C@@H]2C1` it is 61.7%. As to `CC1(C)CC[C@]2(O)C(=O)C[C@]3(C)C(=CC[C@@H]4[C@@]5(C)CC[C@H](O[C@@H]6O[C@H](C(=O)O)[C@@H](O)[C@H](O)[C@H]6O)C(C)(C)[C@@H]5CC[C@]43C)[C@@H]2C1`, the Activity in the data set with HT-22 [2] amounted to 68.9%. For `CC(=O)O[C@H]1CC[C@@]2(C)C(CC[C@]3(C)[C@@H]2C(=O)C=C2[C@@H]4CC(C)(C)CC[C@]4(C)CC[C@]23C)C1(C)C` (some centres undefined), the Activity in the data set with HT-22 [2] is listed as 68.9%.

In the case of `CCOC(=O)[C@H]1O[C@@H](O[C@H]2CC[C@]3(C)[C@H]4CC=C5[C@@H]6CC(C)(C)CC[C@]6(O)C(=O)C[C@@]5(C)[C@]4(C)CC[C@H]3C2(C)C)[C@H](O)[C@@H](O)[C@@H]1O`, the Activity in the data set on HT-22 [1] is 68.9%. In the case of `CC1(C)CC[C@]2(O)C(=O)C[C@]3(C)C(=CC[C@@H]4[C@@]5(C)CC[C@H](O[C@@H]6O[C@H](C(=O)O)[C@@H](O)[C@H](O[C@@H]7O[C@H](CO)[C@@H](O)[C@H](O)[C@H]7O[C@@H]7O[C@H](CO)[C@@H](O)[C@H](O)[C@H]7O)[C@H]6O[C@H]6O[C@@H](CO)[C@H](O)[C@@H](O)[C@@H]6O)C(C)(C)[C@@H]5CC[C@]43C)[C@@H]2C1`, in the data set with HT-22 [2], the Activity was 68.9%.

For `CC1(C)CC[C@]2(CO)C(=O)C[C@]3(C)C(=CC[C@@H]4[C@@]5(C)CC[C@H](O[C@@H]6O[C@H](C(=O)O)[C@@H](O)[C@H](O)[C@H]6O)C(C)(C)[C@@H]5CC[C@]43C)[C@@H]2C1`, the Activity in the data set with HT-22 [3] is on record as 55.5%. Regarding `COC(=O)CC[C@@]1(C)C(C(C)(C)O)C[C@H](O)[C@]2(C)[C@@H]1CC=C1[C@@H]3C[C@](C)(CO)CC[C@]3(O)C(=O)C[C@]12C` (some centres undefined), the Activity in the data set on HT-22 [3] is 68.9%. Consider `O=c1c(O)c(-c2ccc(O)c(O)c2)oc2cc(O)cc(O)c12`, for which the inhibition result in data set [8] was “Active”. As for `CC1(C)CC[C@]2(CO)[C@H](O)C[C@]3(C)C(=CC[C@@H]4[C@@]5(C)CC[C@H](O)C(C)(C)[C@@H]5CC[C@]43C)[C@@H]2C1` [PRIMULAGENIN], the Activity in the data set on HT-22 [1] is 60.5%.

Take `CO[C@@H]1C=C2[C@@H]3CC(C)(C)CC[C@]3(O)C(=O)C[C@@]2(C)[C@]2(C)CC[C@H]3C(C)(C)C(=O)C[C@@H](O)[C@]3(C)[C@@H]12`: the Activity result is reported as “Non-Toxic” with HT-22 [4], 77% in the data set with HT-22 [10] and “Non-Toxic” with BV-2 [5]. Also, the result with HT-22 [6], in the data set on BV-2 [11], in the data set on HT-22 [12] and with HT-22 [13] was Active. In [7], the inhibition is 51.9%. Also, the inhibition result in data set [8] is “Active”. The “fold change (FC)” value with HT-22 [9] is 1.61. On to `CC1(C)CCC2C(=O)C[C@]3(C)C(=C2C1)C=C[C@@H]1[C@@]2(C)CC[C@H](O)C(C)(C)C2CC[C@]13C` (some centres undefined), for which the Activity in the data set on HT-22 [2] was 68.9%. Turning to `CC1(C)CC[C@]2(C(=O)O)C(=O)C[C@]3(C)C(=CC[C@@H]4[C@@]5(C)CC[C@H](O[C@@H]6O[C@H](C(=O)O)[C@@H](O)[C@H](O)[C@H]6O)C(C)(C)[C@@H]5CC[C@]43C)[C@@H]2C1`, the Activity in the data set on HT-22 [3] stood at 72%. As to `CC1(C)CC[C@]2(C(=O)O)CC[C@]3(C)C(=CC[C@@H]4[C@@]5(C)CC[C@H](O)C(C)(C)C5CC[C@]43C)[C@@H]2C1` (some centres undefined), in the data set on HT-22 [2], the Activity worked out at 58.6%. In the case of `COC(=O)CC[C@@]1(C)C(C(C)(C)O)C[C@H](O)[C@]2(C)[C@@H]1CC=C1[C@@H]3CC(C)(C)CC[C@]3(O)C(=O)C[C@]12C` (some centres undefined), the Activity in the data set on HT-22 [3] was 68.9%. Consider `CC1(C)CC[C@]2(O)C(=O)C[C@]3(C)C(=CC[C@@H]4[C@@]5(C)CC[C@H](O[C@@H]6O[C@H](C(=O)O)[C@@H](O)[C@H](O[C@@H]7O[C@H](CO)[C@@H](O)[C@H](O)[C@H]7O[C@@H]7O[C@H](CO)[C@@H](O)[C@H](O)[C@H]7O)[C@H]6O)C(C)(C)[C@@H]5CC[C@]43C)[C@@H]2C1`, for which the Activity in the data set on HT-22 [3] is 68.9%.

With `COC(=O)CC[C@@]1(C)C(C(C)(C)O)CC[C@]2(C)[C@@H]1CC=C1[C@@H]3C[C@](C)(CO)CC[C@]3(CO)C(=O)C[C@]12C` (some centres undefined), the Activity in the data set on HT-22 [3] is listed as 68.9%.
